Measured values published in EP0048827A1, “Substituted 2,4-dichlorophenyl-imidazolyl-vinyl ketones, processes for their preparation and antimicrobial agents containing these compounds” (BAYER AG, priority 1980, dated 1982).

Tested on: Dermatophyten und Schimmelpilze; Hefen
Assay: Antimycotic in-vitro activity, serial dilution test
Assay type: cell-based
Settings: 28°C, 24 h for yeasts, 96 h for dermatophytes and moulds, compared with the prior-art compound (A)
Experimental: Die in-vitro-Prüfung wurde im Reihenverdünnungstest mit Keiminokula von durchschnittlich […] Substrat durchgeführt. Als Nährmedium dienten • a) für Dermatophyten und Schimmelpilze: Sabourand's milieu d'epresive • b) für Hefen: Isotonic Sensitest-Broth von Oxid.
Die Bebrütungstemperatur betrug 28°C; Bebrütungsdauer war 24 Stunden bei Hefen und 96 Stunden bei Dermatophyten und Schimmelpilzen.

Question: Which “antimykotische Wirkung” value does the source give for “1-(2,4-Dichlorphenyl)-2-Eimidazol-1-yl)-3-(methylcyclohexen-3-yl)-2-propen-l-on [Beispiel 1]” here?
Answer: bessere antimykotische Wirkung als die aus dem Stand der Technik bekannte Verbindung (A)

Question: `CCC(C=C(C(=O)c1ccc(Cl)cc1Cl)n1ccnc1)CC` [Beispiel 5] was tested. Which “antimykotische Wirkung” value did it give?
Answer: bessere antimykotische Wirkung als die aus dem Stand der Technik bekannte Verbindung (A)

Question: `CCC(C)C=C(C(=O)c1ccc(Cl)cc1Cl)n1ccnc1` (centres unmarked) [Beispiel 6] was tested. Which “antimykotische Wirkung” value did it give?
Answer: bessere antimykotische Wirkung als die aus dem Stand der Technik bekannte Verbindung (A)

Question: Which “antimykotische Wirkung” value does the source give for `CCCC(C)C=C(C(=O)c1ccc(Cl)cc1Cl)n1ccnc1` (centres unmarked) [Beispiel 7] here?
Answer: bessere antimykotische Wirkung als die aus dem Stand der Technik bekannte Verbindung (A)

Question: For `CCCCC(C=C(C(=O)c1ccc(Cl)cc1Cl)n1ccnc1)CC` (centres unmarked) [Beispiel 9], which “antimykotische Wirkung” value is on record?
Answer: bessere antimykotische Wirkung als die aus dem Stand der Technik bekannte Verbindung (A)
